pIC50: −log10 of the molar value. Several values for one entry are separate records, joined by “and”; a condition that tells them apart may be missing. Equal entries are not always repeated.

This test relates to 313798-341-R-J2-PDC spheroids, viability. The experiment in a line: Anticancer human tumor 313798-341-R-J2-PDC patient-derived cervical squamous cell carcinoma cell line growth inhibition [PI3K]. To be noted: spheroids with HUVEC and MSC; for viability, T/C: stronger effect = lower value. The text has this: Combinatorial screen of targeted agents with the PI3K inhibitors inavolisib, alpelisib, duvelisib, and copanlisib in multi-cell type tumor spheroids
A high-throughput screen of multi-cell type tumor spheroids was designed to identify active combinations of targeted small molecules and PI3K pathway inhibitors. Complex spheroids include a stromal component modeled by human endothelial cells (HUVEC) and fibroblasts modeled by human mesenchymal stem cells (MSCs). The concentration ranges selected for each drug and investigational agent were based upon clinically achievable concentrations if the clinical Cmax of the agent was known.
Compounds. The drugs and investigational agents: inavolisib (NSC800729), alpelisib (NSC765974), duvelisib (NSC772469), copanlisib (NSC816437), ipatasertib (NSC767898), afuresertib (NSC778305), talazoparib (NSC767125), sapanisertib (NSC764658), selumetinib (NSC741078), tovorafenib (DAY101, NSC766906), vemurafenib (NSC761431), ravoxertinib (NSC781343), sotorasib (NSC818433), MRTX1133 (NSC 836407), abemaciclib (NSC 768073), palbociclib (NSC758247), venetoclax (NSC 766270), SY5609 (NSC837396), enzalutamide (NSC755605), and darolutamide (NSC825331), were obtained from the National Cancer Institute (NCI) Developmental Therapeutics Program Chemical Repository. The FDA-approved anticancer drug set is available from the NCI Developmental Therapeutics Program. […] The stock solutions were prepared in dimethyl sulfoxide (DMSO, Sigma-Aldrich, St. Louis, MO, cat. D2650) at 800-fold the tested concentration and stored at -70 degrees C prior to their use. All drugs and investigational agents were tested over a range starting from a high concentration at or near the clinical Cmax and decreasing in half-log increments. If the clinical Cmax for an agent had not been determined, the highest concentration tested was 10 microM.
Cell Culture. All cells were maintained in an incubator at 37 degrees C and 5% CO2 with 95% humidity. The PDC lines were cultured according to standard operating procedures established by the NCI PDMR (https://pdmr.cancer.gov/sops/default.htm). All PDCs were thawed and cultured in Matrigel-coated flasks prepared with a working solution of 1X Ham's F-12 nutrient mix, without supplementation (Invitrogen, Waltham, MA, cat. 11765054), 100 U/mL penicillin-streptomycin (Invitrogen, cat. 15140122), and 2.5% Matrigel (Corning Inc., Corning, NY, cat. 354248) for the first three passages. The 354836-022-R-J1-PDC, 475296-252-R-J1-PDC, and 997726-040-R-J2-PDC lines were cultured in 6A media, which includes advanced DMEM/F-12 (Thermo Fisher Scientific, cat. 12634028), 10 mM HEPES (Thermo Fisher Scientific, cat. 15630080), 1X GlutaMAX supplement (Thermo Fisher Scientific, cat. 35050061), 0.1 mg/mL primocin (InvivoGen, San Diego, CA, cat. ant-pm-2), 10% defined fetal bovine serum, heat inactivated (HyClone Laboratories Inc., Logan, UT, cat. SH30070.03HI), 50% L-WRN conditioned media (ATCC, cat. CRL-3276), 1.25 mM N-Acetyl-L-cysteine (Sigma-Aldrich, cat. A9165), 10 mM nicotinamide (Sigma-Aldrich, cat. N0636), 1X B-27 supplement (Thermo Fisher Scientific, cat. 17504044), 1X N-2 supplement (Thermo Fisher Scientific, cat. 17502048), and 10 microM Y-27632 dihydrochloride (Tocris Bioscience, Bristol, United Kingdom, cat. 1254). The 624824-186-R-J2-PDC line was cultured in 6C/Colon 1B media, which includes all 6A media components plus 50 ng/mL human EGF recombinant protein (Thermo Fisher Scientific, cat. PHG0311). […]

The mark [1] stands for this setting: compound alone, run of 04/24/2023.
[2] abbreviates: compound alone, run of 04/25/2023.
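Note: spheroids exposed to compounds for seven days.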

With `CC(=O)c1c(C)c2cnc(Nc3ccc(N4CCNCC4)cn3)nc2n(C2CCCC2)c1=O`, the viability, T/C (commonly the ratio of treated to control) is, setting by setting: (compound 0.000316 µM) 105% (2×) and 108%; (compound 0.001 µM) 105% (2×) and 110%; (compound 0.00316 µM) 109% and 99.2% and 92.1%; (compound 0.01 µM) 101% and 103% and 118%; (compound 0.0316 µM) 101% (2×) and 97.3%; (compound 0.1 µM) 94.9% and 101% and 110%. For the same compound, for the setting “curve of compound”, the pIC50 (in general, the IC50 on a negative log10 scale, so that one unit is a factor of ten) was less than 7.00.

`CC(C)NCC(C(=O)N1CCN(c2ncnc3c2C(C)CC3O)CC1)c1ccc(Cl)cc1` (stereo not given): the viability, T/C (compound 0.0316 µM) is 97.6% [middle of 4 runs]; the viability, T/C (compound 0.1 µM) was 96.4% [middle of 4 runs]; the viability, T/C (compound 0.316 µM) was 92.8% [middle of 4 runs]; the viability, T/C (compound 1 µM) was 65.8% [middle of 4 runs]; the viability, T/C (compound 3.16 µM) was 41.6% [middle of 4 runs]; the viability, T/C (compound 10 µM) is 31.5% [middle of 4 runs]. Also, under “curve of compound”, the IC50 (as a rule, the concentration that gives 50% inhibition) was 2 µM [middle of 4 runs].

Consider `CC(C)n1nc(-c2ccc3oc(N)nc3c2)c2c(N)ncnc21`, for which the viability, T/C is, setting by setting: (compound 0.000316 µM) 99% [middle of 4 runs]; (compound 0.001 µM) 98.2% [middle of 4 runs]; (compound 0.00316 µM) 101% [middle of 4 runs]; (compound 0.01 µM) 86.7% [middle of 4 runs]; (compound 0.0316 µM) 77.7% [middle of 4 runs]; (compound 0.1 µM) 38.6% (2×) and 36.7% and 38.7%. In addition, the IC50 (curve of compound) was 71.3 nM [middle of 4 runs].

For the compound `CC(Nc1ccc2c(c1)OCCn1cc(N3C(=O)OCC3C(F)F)nc1-2)C(N)=O` (stereo not given), the viability, T/C (compound 0.00316 µM) is 96.5% [middle of 8 runs]; the viability, T/C (compound 0.01 µM) is 103% [middle of 8 runs]; the viability, T/C (compound 0.0316 µM) is 103% [middle of 8 runs]; the viability, T/C (compound 0.316 µM) is 76.6% [middle of 8 runs]; the viability, T/C (compound 1 µM) was 53.9% [middle of 8 runs]. For the same compound, the pIC50 under setting [1] was 6.28 and 6.04 and < 6.00.

As to `CC(Nc1ncnc2nc[nH]c12)c1cc2cccc(Cl)c2c(=O)n1-c1ccccc1` (stereo not given), the viability, T/C by setting is: (compound 0.0316 µM) 100% [middle of 8 runs]; (compound 0.1 µM) 95.1% [middle of 8 runs]; (compound 0.316 µM) 99.5% [middle of 8 runs]; (compound 1 µM) 97.6% [middle of 8 runs]; (compound 3.16 µM) 94.7% [middle of 8 runs]; (compound 10 µM) 89.6% [middle of 8 runs]. In addition, under setting [2], the pIC50 was less than 5.00.

`CC1(C)CCC(CN2CCN(c3ccc(C(=O)NS(=O)(=O)c4ccc(NCC5CCOCC5)c([N+](=O)[O-])c4)c(Oc4cnc5[nH]ccc5c4)c3)CC2)=C(c2ccc(Cl)cc2)C1`: the viability, T/C is 101% [middle of 4 runs] (compound 0.0316 µM); 97.8% [middle of 4 runs] (compound 0.1 µM); 101% [middle of 4 runs] (compound 0.316 µM); 94.4% [middle of 4 runs] (compound 1 µM); 78.9% [middle of 4 runs] (compound 3.16 µM).

As to `CCCS(=O)(=O)Nc1ccc(F)c(C(=O)c2c[nH]c3ncc(-c4ccc(Cl)cc4)cc23)c1F`, the viability, T/C was 98.2% [middle of 4 runs] (compound 0.0316 µM); 102% [middle of 4 runs] (compound 0.1 µM); 101% [middle of 4 runs] (compound 0.316 µM); 100% [middle of 4 runs] (compound 1 µM); 107% (2×) and 99.1% and 108% (compound 3.16 µM); 18.7% [middle of 4 runs] (compound 10 µM). Further, the IC50 (curve of compound) is 6.37 µM [middle of 4 runs].

On to `CCN1CCN(Cc2ccc(Nc3ncc(F)c(-c4cc(F)c5nc(C)n(C(C)C)c5c4)n3)nc2)CC1`, for which the viability, T/C was 99.5% [middle of 4 runs] (compound 0.01 µM); 103% [middle of 4 runs] (compound 0.0316 µM); 102% [middle of 4 runs] (compound 0.1 µM); 120% [middle of 4 runs] (compound 0.316 µM); 122% [middle of 4 runs] (compound 1 µM). Also, the pIC50 (curve of compound) is less than 6.00.

With `CNC(=O)c1ccc(N2C(=S)N(c3ccc(C#N)c(C(F)(F)F)c3)C(=O)C2(C)C)cc1F`, the viability, T/C was 104% and 102% (2×) and 89% (compound 0.0316 µM); 99.5% [middle of 4 runs] (compound 0.1 µM); 104% [middle of 4 runs] (compound 0.316 µM); 102% [middle of 4 runs] (compound 1 µM); 105% [middle of 4 runs] (compound 3.16 µM); 102% [middle of 4 runs] (compound 10 µM). In addition, for the setting “curve of compound”, the pIC50 was less than 5.00.

Turning to `COc1c(OCCCN2CCOCC2)ccc2c3n(c(=NC(=O)c4cnc(N)nc4)nc12)CCN3`, the viability, T/C is 101% [middle of 7 runs] (compound 0.00316 µM); 102% [middle of 7 runs] (compound 0.01 µM); 84.5% [middle of 7 runs] (compound 0.0316 µM); 42.1% [middle of 7 runs] (compound 0.1 µM); 14.9% [middle of 7 runs] (compound 0.316 µM); 11.9% [middle of 7 runs] (compound 1 µM). Besides, the IC50 under setting [2] is 80.2 nM [middle of 7 runs].

On to `C[C@@H](NC(=O)c1ncnc(N)c1Cl)c1ncc(C(=O)Nc2cc(C(F)(F)F)c(Cl)cn2)s1`, for which the viability, T/C (compound 0.0316 µM) was 94.6% [middle of 4 runs]; the viability, T/C (compound 0.1 µM) was 102% [middle of 4 runs]; the viability, T/C (compound 0.316 µM) is 99.1% [middle of 4 runs]; the viability, T/C (compound 1 µM) is 97.8% [middle of 4 runs]; the viability, T/C (compound 3.16 µM) was 120% [middle of 4 runs]. In addition, under “curve of compound”, the pIC50 was < 5.00 and 5.23.

Regarding `Cc1nc(NC(=O)N2CCCC2C(N)=O)sc1-c1ccnc(C(C)(C)C(F)(F)F)c1` (stereo not given), the viability, T/C is 99.9% [middle of 8 runs] (compound 0.0316 µM); 97.5% [middle of 8 runs] (compound 0.1 µM); 102% [middle of 8 runs] (compound 0.316 µM); 90.6% [middle of 8 runs] (compound 1 µM); 59.9% [middle of 8 runs] (compound 3.16 µM); 36.2% [middle of 8 runs] (compound 10 µM). Also, under setting [1], the IC50 was 4.93 µM [middle of 8 runs].

On to `Cn1cnc2c(F)c(Nc3ccc(Br)cc3Cl)c(C(=O)NOCCO)cc21`, for which the viability, T/C is 97.9% [middle of 4 runs] (compound 0.00949 µM), 92% [middle of 4 runs] (compound 0.03 µM), 89.5% [middle of 4 runs] (compound 0.0949 µM) and 93.5% [middle of 4 runs] (compound 0.3 µM). Moreover, the pIC50 (curve of compound) was 5.86 and < 5.52.

As for `Cn1ncnc1[C@H]1c2n[nH]c(=O)c3cc(F)cc(c23)N[C@@H]1c1ccc(F)cc1`, the viability, T/C (compound 0.001 µM) is 94.9% [middle of 4 runs]; the viability, T/C (compound 0.00316 µM) is 94.7% [middle of 4 runs]; the viability, T/C (compound 0.01 µM) is 104% (2×) and 88.8% and 114%; the viability, T/C (compound 0.0316 µM) is 95.9% [middle of 4 runs]; the viability, T/C (compound 0.1 µM) was 89% [middle of 4 runs]. Moreover, the pIC50 (curve of compound) is less than 7.00.

These data come from PubChem BioAssay AID1963982 (Molecular Pharmacology Branch, DTP, NCI, 2024).
